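Interpolation was linear, between the two tested concentrations surrounding the appropriate level; five concentrations were tested over 48 hours in 96-well plates. GI50 is the concentration that inhibits growth by half.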 Active and inactive are the calls of the source. No stated cut-off is given here; in the data, active = GI50 up to about 1.1 µM and inactive = higher.
Legend:
Assay in all cases: growth of human tumour cells (NCI), 48 h
[1] = tested on: MDA-MB-231
[2] = tested on: CAKI-1
[3] = tested on: EKVX
[4] = tested on: LOX IMVI
[5] = tested on: NCI/ADR-RES
[6] = tested on: MDA-N
[7] = tested on: NCI-H226
[8] = tested on: K562
[9] = tested on: TK-10
[10] = tested on: HL-60
[11] = tested on: UACC-62
[12] = tested on: IGROV-1
[13] = tested on: PC-3
[14] = tested on: MCF7
[15] = tested on: A549
[16] = tested on: SK-MEL-2
[17] = tested on: OVCAR-4
[18] = tested on: SN12C
[19] = tested on: Malme-3M
[20] = tested on: M14
[21] = tested on: NCI-H460
[22] = tested on: CCRF-CEM
[23] = tested on: Hs-578T
[24] = tested on: UO-31
[25] = tested on: KM12
[26] = tested on: MOLT-4
[27] = tested on: UACC-257
[28] = tested on: A498
[29] = tested on: ACHN
[30] = tested on: OVCAR-3
[31] = tested on: COLO 205
[32] = tested on: SK-OV-3
[33] = tested on: OVCAR-5
[34] = tested on: HCT-116
[35] = tested on: SF-539
[36] = tested on: SK-MEL-28
[37] = tested on: HT-29
[38] = tested on: OVCAR-8
[39] = tested on: T47D
[40] = tested on: DU-145
[41] = tested on: SNB-75
[42] = tested on: HCT-15
[43] = tested on: SW-620
[44] = tested on: HCC 2998
[45] = tested on: RXF 393
[46] = tested on: SF-268
[47] = tested on: U-251
[48] = tested on: BT-549
[49] = tested on: 786-0
[50] = tested on: HOP-92
[51] = tested on: SF-295
[52] = tested on: MDA-MB-435
[53] = tested on: SNB-19
[54] = tested on: SK-MEL-5
[55] = tested on: NCI-H522
[56] = tested on: HOP-62
[57] = tested on: RPMI-8226
[58] = tested on: NCI-H23

C[C@]12CC[C@@H]3c4cc(Br)c(O)c(Br)c4CC[C@H]3[C@@H]1CC(Br)C2=O (stereo partly specified)
GI50 [1]: 6.62 µM (inactive) | GI50 [2]: 3.7 µM (inactive) | GI50 [3]: 13.2 µM (inactive) | GI50 [4]: 3.57 µM (inactive) | GI50 [5]: 4.63 µM (inactive) | GI50 [6]: 5.79 µM (inactive) | GI50 [7]: 6.5 µM (inactive) | GI50 [8]: 2.29 µM (inactive) | GI50 [9]: 14.2 µM (inactive) | GI50 [10]: 2.59 µM (inactive) | GI50 [11]: 3.59 µM (inactive) | GI50 [12]: 9.23 µM (inactive) | GI50 [13]: 8.61 µM (inactive) | GI50 [14]: 5.61 µM (inactive) | GI50 [15]: 17.4 µM (inactive) | GI50 [16]: 12.2 µM (inactive) | GI50 [17]: 5.97 µM (inactive) | GI50 [18]: 4.53 µM (inactive) | GI50 [19]: 15.2 µM (inactive) | GI50 [20]: 7.03 µM (inactive) | GI50 [21]: 5.82 µM (inactive) | GI50 [22]: 1.71 µM (inactive) | GI50 [23]: 5.86 µM (inactive) | GI50 [24]: 1.23 µM (inactive) | GI50 [25]: 3.57 µM (inactive) | GI50 [26]: 2.53 µM (inactive) | GI50 [27]: 15.8 µM (inactive) | GI50 [28]: 23.3 µM (inactive) | GI50 [29]: 6.37 µM (inactive) | GI50 [30]: 2.58 µM (inactive) | GI50 [31]: 7.87 µM (inactive) | GI50 [32]: 14.6 µM (inactive) | GI50 [33]: 22.1 µM (inactive) | GI50 [34]: 3.66 µM (inactive) | GI50 [35]: 7.52 µM (inactive) | GI50 [36]: 7.28 µM (inactive) | GI50 [37]: 3.26 µM (inactive) | GI50 [38]: 2.54 µM (inactive) | GI50 [39]: 4.65 µM (inactive) | GI50 [40]: 23.4 µM (inactive) | GI50 [41]: 12.1 µM (inactive) | GI50 [42]: 2.65 µM | GI50 [43]: 3.36 µM (inactive) | GI50 [44]: 1.99 µM (inactive) | GI50 [45]: 2.51 µM (inactive) | GI50 [46]: 5.68 µM (inactive) | GI50 [47]: 3.3 µM (inactive) | GI50 [48]: 5 µM (inactive) | GI50 [49]: 4.24 µM (inactive) | GI50 [50]: 20.7 µM (inactive) | GI50 [51]: 16.6 µM (inactive) | GI50 [52]: 4.13 µM (inactive)

COc1ccc2c(c1)/C(=C\c1c(-c3ccccc3)nc3n1CCS3)C(=O)N2
GI50 [1]: 4.03 µM (inactive) | GI50 [2]: 4.99 µM (inactive) | GI50 [3]: 12.8 µM (inactive) | GI50 [4]: 7.64 µM (inactive) | GI50 [5]: 4.5 µM (inactive) | GI50 [6]: 1.87 µM (inactive) | GI50 [8]: 2.94 µM (inactive) | GI50 [9]: 10.7 µM (inactive) | GI50 [10]: 3.04 µM (inactive) | GI50 [11]: 4.83 µM (inactive) | GI50 [12]: 4.92 µM (inactive) | GI50 [13]: 2.97 µM (inactive) | GI50 [14]: 4.62 µM (inactive) | GI50 [15]: 5.57 µM (inactive) | GI50 [16]: 5.25 µM (inactive) | GI50 [53]: 49.7 µM (inactive) | GI50 [18]: 12.4 µM (inactive) | GI50 [19]: 12.2 µM (inactive) | GI50 [20]: 6.9 µM (inactive) | GI50 [21]: 3.52 µM (inactive) | GI50 [22]: 4.1 µM (inactive) | GI50 [23]: 11 µM (inactive) | GI50 [24]: 9.82 µM (inactive) | GI50 [25]: 3.33 µM (inactive) | GI50 [26]: 2.78 µM (inactive) | GI50 [27]: 12.2 µM (inactive) | GI50 [28]: 5.05 µM (inactive) | GI50 [54]: 5.08 µM (inactive) | GI50 [29]: 11.5 µM (inactive) | GI50 [55]: 4.63 µM (inactive) | GI50 [30]: 3.82 µM (inactive) | GI50 [56]: 10.5 µM (inactive) | GI50 [31]: 3.27 µM (inactive) | GI50 [32]: 12.7 µM (inactive) | GI50 [33]: 14.8 µM (inactive) | GI50 [34]: 5.01 µM (inactive) | GI50 [57]: 5.26 µM (inactive) | GI50 [35]: 5.9 µM (inactive) | GI50 [36]: 11.1 µM (inactive) | GI50 [37]: 3.71 µM (inactive) | GI50 [38]: 14.6 µM (inactive) | GI50 [39]: 7.5 µM (inactive) | GI50 [58]: 11.5 µM (inactive) | GI50 [40]: 16.3 µM (inactive) | GI50 [41]: 12.8 µM (inactive) | GI50 [42]: 4.38 µM | GI50 [43]: 2.99 µM (inactive) | GI50 [44]: 10.6 µM (inactive) | GI50 [45]: 13.6 µM (inactive) | GI50 [46]: 9.2 µM (inactive) | GI50 [47]: 7.28 µM (inactive) | GI50 [48]: 9.51 µM (inactive) | GI50 [49]: 11.9 µM (inactive) | GI50 [50]: 12.9 µM (inactive) | GI50 [51]: 3.79 µM (inactive) | GI50 [52]: 1.53 µM (inactive)

O=C(CC(=O)Nc1cccc(C(=O)O)c1)Nc1cccc(C(=O)O)c1
GI50 [1]: > 100 µM (inactive) | GI50 [2]: > 100 µM (inactive) | GI50 [3]: > 100 µM (inactive) | GI50 [4]: > 100 µM (inactive) | GI50 [5]: > 100 µM (inactive) | GI50 [6]: > 100 µM (inactive) | GI50 [7]: > 100 µM (inactive) | GI50 [8]: > 100 µM (inactive) | GI50 [9]: > 100 µM (inactive) | GI50 [10]: > 100 µM (inactive) | GI50 [11]: 96.6 µM (inactive) | GI50 [12]: > 100 µM (inactive) | GI50 [13]: > 100 µM (inactive) | GI50 [14]: > 100 µM (inactive) | GI50 [15]: > 100 µM (inactive) | GI50 [16]: > 100 µM (inactive) | GI50 [17]: > 100 µM (inactive) | GI50 [53]: > 100 µM (inactive) | GI50 [18]: > 100 µM (inactive) | GI50 [20]: > 100 µM (inactive) | GI50 [21]: > 100 µM (inactive) | GI50 [22]: > 100 µM (inactive) | GI50 [23]: > 100 µM (inactive) | GI50 [24]: > 100 µM (inactive) | GI50 [25]: > 100 µM (inactive) | GI50 [26]: > 100 µM (inactive) | GI50 [27]: > 100 µM (inactive) | GI50 [28]: > 100 µM (inactive) | GI50 [54]: > 100 µM (inactive) | GI50 [29]: > 100 µM (inactive) | GI50 [55]: > 100 µM (inactive) | GI50 [30]: > 100 µM (inactive) | GI50 [56]: > 100 µM (inactive) | GI50 [31]: > 100 µM (inactive) | GI50 [34]: > 100 µM (inactive) | GI50 [57]: > 100 µM (inactive) | GI50 [35]: > 100 µM (inactive) | GI50 [36]: > 100 µM (inactive) | GI50 [37]: > 100 µM (inactive) | GI50 [38]: > 100 µM (inactive) | GI50 [39]: > 100 µM (inactive) | GI50 [58]: > 100 µM (inactive) | GI50 [40]: > 100 µM (inactive) | GI50 [42]: > 100 µM | GI50 [43]: > 100 µM (inactive) | GI50 [44]: > 100 µM (inactive) | GI50 [46]: > 100 µM (inactive) | GI50 [47]: > 100 µM (inactive) | GI50 [48]: > 100 µM (inactive) | GI50 [49]: > 100 µM (inactive) | GI50 [50]: > 100 µM (inactive) | GI50 [51]: > 100 µM (inactive) | GI50 [52]: > 100 µM (inactive)

Reference: ChEMBL document CHEMBL1201862, “PubChem BioAssay data set” (2004)
